Results taken from patent US20230390282A1, “TREATMENT OF EYE CONDITIONS” (The University of Birmingham, priority 2020, published 2023).
“Also recorded” adds a separate entry of the source.

Tests used:
RGC [1] = assay: Rat retinal cultures: RGC survival and neurite outgrowth; format: cell-based; conditions: 1-50 μM
Procedure: (§1) Rat DRGN and retinal cultures. […] Cells were cultured for 4 days in a humidified chamber at 37° C. and 5% CO2 before being subjected to quantitative RT-PCR or immunocytochemistry, as described below.

RGC [2] = conditions: 24 days after ONC
[3] = tested on: dorsal root ganglion neuron (DRGN) cultures; assay: Primary adult rat DRGN cultures: survival and neurite outgrowth; format: cell-based
Procedure: as §1

RGC [4] = assay: Optic neuritis model: RGC survival and RNFL thickness; format: in vivo, mice
Procedure: Induction of optic neuritis. […] Animals were intraperitoneally injected with 150 ng Bordetella pertussis toxin on day 0 and 2. Animals were monitored daily and assessed for the development of EAE. At the end of the experiment, animals were then killed by CO2 overdose.
Measurement of RNFL thinning using optical coherence tomography (OCT). A Spectralis HRA+OCT machine was used to capture OCT images. Examinations were recorded in both right (oculus dextrus, OD) and left eyes (oculus sinister, OS) of each animal at day 0 and day 21 after immunisation. […] A RNFL single exam using the automatic real time (ART) mode (allows averaging of 100 recordings) was produced for each mouse eye, which automatically measured RNFL thickness (μm) in a 30° circle surrounding the optic nerve head.

dorsal column (DC) axons = assay: T8 dorsal column (DC) crush model of spinal cord injury: axon regeneration, electrophysiology, sensory and locomotor tests; format: in vivo, rat; conditions: for DC axon regeneration: GAP43+ axons rostral to/beyond the lesion site
Procedure: DC crush injury model. Rats were injected subcutaneously with 0.05 ml Buprenorphine to provide analgesia prior to surgery and anaesthetised using 5% of Isoflurane in 1.8 ml/l of O2 with body temperature and heart rate monitored throughout surgery.
Chk2 inhibition studies in the DC crush injury model. […] Chk1i (LY2603618) was used at equimolar concentrations for each experiment. Rats were killed in a rising concentration of CO2 at either 28 d for immunohistochemistry and western blot analyses or 6 weeks for electrophysiology and functional tests.
Sham treated animals (partial laminectomy but no DC injury) were also included as additional controls. At 4 weeks after DC injury and treatment, ipsilateral L4/L5 DRG pairs were harvested, total RNA extracted using Trizol reagent as described above and knock down of Chk1 and Chk2 mRNA knockdown using quantitative qRT-PCR, as described above. Contralateral L4/L5 DRG pairs were treated the same as above and used as controls. […] This included western blot to determine pChk1 and pChk2 levels after shChk2 treatment. For these experiments, animals were randomly assigned to DC+shNull and DC+shChk2 groups each comprising n=6 rats and repeated on 3 independent occasions (total n=18 rats/group). […] Animals were allowed to survive for 6 weeks with functional testing (tape sensing+removal and ladder crossing tests) performed pre- and post-DC injury as described below. Electrophysiology was performed on the same set of animals at 6 weeks after DC injury and treatment as described below.
Quantification of DC axon regeneration. […] Briefly, the number of intersections of GAP43^+ fibers were counted through a dorsoventral orientated line in reconstructed serial parasagittal sections of the cord (serial 50μm-thick sections ˜70-80 sections/animal; n=10 rats/treatment)). Axon number was then represented as % of fibers counted at 4 mm above the lesion, where the DC was intact.
Electrophysiology. […] Briefly, with the experimenter masked to the treatment conditions, silver wire electrodes applied single-current pulses (0.05 ms) through a stimulus isolation unit in increments (0.2, 0.3, 0.6, 0.8, and 1.2 mA) at L1-L2 and compound action potentials (CAP) were recorded at C4-C5 along the surface of the midline spinal cord. Spike 2 software was then used to calculate CAP amplitudes between the negative deflection after the stimulus artifact and the next peak of the wave. CAP area was calculated by rectifying the negative CAP component (full-wave rectification) and measuring its area. At the different stimulation intensities. […] Representative CAP traces are processed output data from Spike 2 software.
Functional tests. […] Briefly, animals (n=6 rats/group, 3 independent repeats; total n=18/group) received training to master traversing the horizontal ladder for 1w before functional testing. Baseline parameters for all functional tests were established 2-3 d before injury. Animals were then tested 2 d after DC lesion+treatment and then weekly for 6 weeks. Experiments were performed by 2 observers (treatment conditions were masked) in the same order, the same time of day and each test performed for 3 individual trials. Horizontal ladder test: This tests the animals locomotor function and is performed on a 0.9-meter-long horizontal ladder with a diameter of 15.5 cm and randomly adjusted rungs with variable gaps of 3.5-5.0 cm. The total number of steps taken to cross the ladder and the left and right rear paw slips being were recorded and the mean error rate was then calculated by dividing the number of slips by the total number of steps taken.

RGC [5] = assay: Glaucoma model (intracameral TGFβ): RGC survival; format: in vivo, rat; conditions: 30 days after the induction of glaucoma
Procedure: Induction of glaucoma. […] Intraocular pressure was measured using an iCare
Tonolab rebound tonometer (Icare, Helsinki, Finland).

[6] = Chk2i: 3 weeks after injury, others over the whole 6 weeks

Molecule | effect on RGC survival (RGC [1]) | effect on ERG traces (RGC [2]) | effect on DRGN survival ([3]; 1-50 μM) | neurite outgrowth in DRGN ([3]; 4 days in culture) | DRGN survival ([3]; 4 days in culture, NBA-treated controls 40%) | protection of RGC from death (RGC [4]; 21 days after induction) | protection against retinal nerve fibre layer thinning (RGC [4]; OCT at day 21) | mean CAP area at different stimulation intensities (dorsal column (DC) axons; 6 weeks after DC injury) | negative CAP amplitudes (dorsal column (DC) axons; 6 weeks after DC injury, all stimulation intensities) | ladder crossing test (locomotor function) outcome (dorsal column (DC) axons; [6]) | tape sensing/removal test (sensory function) outcome (dorsal column (DC) axons; [6]) | DC axon regeneration (dorsal column (DC) axons) | protection of RGC from death (RGC [5]) | improvement in RGC function measured by flash electroretinography (ERG) amplitude (RGC [2]) [%] | % DRGN with neurites ([3]; 4 days in culture) [%] | mean neurite length ([3]; 4 days in culture, controls 12 μm) [μm]
Cc1cnc(NC(=O)Nc2cc(Br)c(C)cc2OC[C@@H]2CNCCO2)cn1 [Chk1i] | no effect | no effect | no effect | no effect | no effect | no effect | no effect | significantly attenuated | significantly attenuated | significant deficit remains; also recorded: deficit remaining | significant deficit remained | no axon regeneration beyond the lesion site | no effect | – | – | –
COc1cc2nc(-c3cc(F)ccc3O)nc(N[C@@H]3CNC[C@H]3C(C)(C)O)c2cc1OC [Chk2i] | – | – | – | – | – | – | – | – | – | – | – | significant DC axon regeneration | – | > 83 | – | –
FGF2: positive control for DRGN cultures, pre-optimised 10 ng/ml | – | – | – | – | – | – | – | – | – | – | – | – | – | – | 42 | 180
